pEC50: −log10 of the molar value.
Target: 60S ribosomal protein L19-A (Saccharomyces cerevisiae (strain ATCC 204508 / S288c), UniProt P0CX82)
Assay: TOR pathway reporter RPL19A-GFP modulators – cell-based, cherry pick 3, SAR, flow cytometry GFP, multiplex, dose response (AID 488814)
Details: inactive by the depositor's call

Chain of 60S ribosomal protein L19-A (P0CX82 whole entry): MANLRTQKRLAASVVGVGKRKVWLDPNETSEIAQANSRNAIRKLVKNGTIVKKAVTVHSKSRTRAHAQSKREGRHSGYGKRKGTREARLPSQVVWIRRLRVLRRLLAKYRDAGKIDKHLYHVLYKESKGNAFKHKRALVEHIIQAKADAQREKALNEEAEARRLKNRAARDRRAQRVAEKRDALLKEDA

SMILES	pEC50
CCOC(=O)CS(=O)(=O)c1nc(-c2ccccc2)cc(C(F)(F)F)n1 [2-[4-phenyl-6-(trifluoromethyl)pyrimidin-2-yl]sulfonylacetic acid ethyl ester]	4.25
Cc1ccc(C(=O)Nc2nc(-c3ccccn3)cs2)o1 [5-methyl-N-[4-(2-pyridinyl)-2-thiazolyl]-2-furancarboxamide]	4.42
